Assay results: PMC3479967 (Evidence-based Complementary and Alternative Medicine : eCAM, 2012)

Key:
[1] = molecular target: T1, UGT2B4 (Homo sapiens, UniProt P06133); assay: Inhibition of recombinant UGT2B4 activity (4-MU glucuronidation)
T1 sequence (P06133 24-528): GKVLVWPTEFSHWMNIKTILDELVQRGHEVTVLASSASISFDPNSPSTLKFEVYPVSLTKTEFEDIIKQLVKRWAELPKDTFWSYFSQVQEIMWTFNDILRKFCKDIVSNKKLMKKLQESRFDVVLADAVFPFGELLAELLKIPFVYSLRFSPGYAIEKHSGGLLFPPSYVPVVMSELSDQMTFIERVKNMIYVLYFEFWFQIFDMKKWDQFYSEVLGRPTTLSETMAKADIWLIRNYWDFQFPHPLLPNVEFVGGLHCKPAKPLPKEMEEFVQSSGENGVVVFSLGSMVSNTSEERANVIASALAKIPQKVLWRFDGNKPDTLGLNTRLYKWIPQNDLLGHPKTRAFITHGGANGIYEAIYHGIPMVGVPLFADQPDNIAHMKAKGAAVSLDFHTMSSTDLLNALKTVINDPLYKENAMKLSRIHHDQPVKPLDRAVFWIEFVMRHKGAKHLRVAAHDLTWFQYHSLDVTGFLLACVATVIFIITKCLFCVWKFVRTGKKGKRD
Method: (§1) A panel of recombinant human UGT supersomes (UGT1A1, UGT1A3, UGT1A4, UGT1A6, UGT1A7, UGT1A8, UGT1A9, UGT1A10, UGT2B4, UGT2B7, UGT2B15, and UGT2B17) expressed in baculovirus-infected insect cells were purchased from BD Gentest Corp. (Woburn, MA, USA).
(§2) 4-MU, a nonselective substrate of UGTs, was used as probe substrate for all UGTs except UGT1A4. Incubations with each individual enzyme were conducted using conditions previously described. There was a 5 min preincubation step at 37°C before the reaction was started by addition of UDPGA. The incubation mixtures were then centrifuged at 20,500 ×g for 15 min to obtain the supernatant. Aliquots (20 μL) were then analyzed by HPLC. The HPLC system (SHIMADZU, Kyoto, Japan) consisted of an SCL-10A system controller, two LC-10AT pumps, a SIL-10A auto injector, and a SPD-10AVP UV detector. Chromatographic separation was achieved using a Kromasil ODS column (4.6 × 150 mm I.D., 5 μm particle size) at a flow rate of 1 mL/min and UV detection at 316 nm. The mobile phase consisted of 10 mM KH2PO4, pH 2.7 (A) and acetonitrile (B). The following gradient was applied at a flow rate of 1 mL/min: 0–4 min 80% A and 20% B, 4.1–8 min 50% A and 50% B, 8.1–12 min, 30% A and 70% B. All experiments were performed in two independent experiments in duplicate.
A typical incubation mixture contained recombinant human UGTs, 5 mM MgCl2, 5 mM UDPGA, 50 μg/mg protein alamethicin, 50 mM Tris-HCl buffer (pH 7.4), and various probe substrates of UGTs in the absence or presence of different concentrations of inhibitors. […] The final concentration of DMSO in the incubation system was 1% (v/v). […]
(§3) Inhibition data from experiments were graphically represented by Dixon plots. K i values were calculated by nonlinear regression using the equations for competitive inhibition (1), noncompetitive inhibition (2), or mixed inhibition (3), [22] […] The type of inhibition was determined from the enzyme inhibition models. Goodness of fit to kinetic and inhibition models was assessed from the F statistic, r ^2 values, parameter standard error estimates, and 95% confidence intervals. […]

[2] = molecular target: T2, UGT2B7 (Homo sapiens, UniProt P16662); assay: Inhibition of recombinant UGT2B7 activity (4-MU glucuronidation)
T2 sequence (P16662 24-529): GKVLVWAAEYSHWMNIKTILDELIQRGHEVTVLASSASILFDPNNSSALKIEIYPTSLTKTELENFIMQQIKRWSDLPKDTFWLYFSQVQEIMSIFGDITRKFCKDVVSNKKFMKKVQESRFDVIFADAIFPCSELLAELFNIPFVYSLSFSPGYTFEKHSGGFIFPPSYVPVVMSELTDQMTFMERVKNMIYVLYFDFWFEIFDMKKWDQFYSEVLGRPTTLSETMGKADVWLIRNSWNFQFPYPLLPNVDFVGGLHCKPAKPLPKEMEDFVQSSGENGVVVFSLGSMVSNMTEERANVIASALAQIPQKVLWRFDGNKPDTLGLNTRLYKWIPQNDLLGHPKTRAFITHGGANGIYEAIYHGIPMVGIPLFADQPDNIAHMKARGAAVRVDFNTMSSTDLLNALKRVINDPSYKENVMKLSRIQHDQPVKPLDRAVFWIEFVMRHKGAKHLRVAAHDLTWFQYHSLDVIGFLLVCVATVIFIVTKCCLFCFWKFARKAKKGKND
Method: as §1, §2
A typical incubation mixture contained recombinant human UGTs, 5 mM MgCl2, 5 mM UDPGA, 50 μg/mg protein alamethicin, 50 mM Tris-HCl buffer (pH 7.4), and various probe substrates of UGTs in the absence or presence of different concentrations of inhibitors. […] The final concentration of DMSO in the incubation system was 1% (v/v). […] Known UGT inhibitors were used as positive controls: diclofenac for UGT1A1, UGT1A6, UGT1A7, and UGT1A9; androsterone for UGT1A3, UGT2B7, and UGT2B15, phenylbutazone for UGT1A8 and UGT1A10, and hecogenin for UGT1A4, respectively. There is no positive control reported available for UGT2B4 and UGT2B17. The negative controls are the incubation without UDPGA. […] The final concentration of DMSO in the incubation system was 1% (v/v). […] There was a 5 min preincubation step at 37°C before the reaction was started by the addition of UDPGA. Incubation times were 120 min for UGT1A1, UGT1A10, UGT2B4, UGT2B15, and UGT2B17, 75 min for UGT1A3, and 30 min for UGT1A4, UGT1A6, UGT1A7, UGT1A8, and UGT1A9. The reactions were quenched by adding 100 μL acetonitrile and internal standard. The incubation mixtures were then centrifuged at 20,500 ×g for 15 min to obtain the supernatant. An aliquot of the supernatant was used for HPLC analysis as described above. All experiments were performed in two independent experiments in duplicate.
as §3

Compound | IC50 [1] [µM] | IC50 [2] [µM]
COc1ccc(-c2oc3c(CC=C(C)C)c(O)cc(O)c3c(=O)c2O)cc1 [Icaritin] | > 100 | > 100
COc1ccc(-c2oc3c(CC=C(C)C)c(O[C@@H]4O[C@H](CO)[C@@H](O)[C@H](O)[C@H]4O)cc(O)c3c(=O)c2O)cc1 [Icariside I] | > 100 | > 100
COc1ccc(-c2oc3c(CC=C(C)C)c(O[C@@H]4O[C@H](CO)[C@@H](O)[C@H](O)[C@H]4O)cc(O)c3c(=O)c2O[C@@H]2O[C@@H](C)[C@H](O)[C@@H](O)[C@H]2O)cc1 [Icariin] | > 100 | > 100
